“Also recorded” adds a separate entry of the source.
Legend:
[1] = system: pSARS-2 infected NHBE cells (infection-induced cell surface shedding of profibrotic enzymes); format: cell-based, human
[2] = system: Wuhan pSARS infected NHBE supernatants; format: cell-based, human
[3] = system: SARS-COV-2 pseudovirus (pSARS-2) infected NHBE cells; format: cell-based, human; settings: inhibitor added during clotting assay (5 U/ml hirudin, 5 μM dabigatran, 5 μM argatroban), turbidity 350 nm / confocal
thrombin = thrombin (Homo sapiens, UniProt P00734); format: biochemical; settings: thrombin ~0.2 U/ml; stoichiometric concentration of hirudin
[4] = system: replication competent SARS-COV-2 infected NHBE cells; format: cell-based, human; settings: WA-1, beta and delta strains

| Compound | fibrin clot formation, inhibitor present during the viral infection [1] | fibrin clotting step, inhibitor added post-infection [2] | infection-induced fibrin clot formation [3] | thrombin induced fibrin clotting (thrombin) | fibrin clotting induced by replication competent SARS-CoV-2 infection of NHBE cells [4] |
| --- | --- | --- | --- | --- | --- |
| CNC(=O)[C@H](Cc1ccccc1)NC(=O)[C@H](CC(C)C)[C@H](CSc1cccs1)C(=O)NO [BB-94, batimastat] | significantly reduced; also recorded: inhibited; also recorded: reduced fibrin clot formation | did not inhibit | – | – | – |
| CC1CNc2c(cccc2S(=O)(=O)N[C@@H](CCCNC(=N)N)C(=O)N2CC[C@@H](C)C[C@@H]2C(=O)O)C1 (stereo partly shown) [argatroban] | – | – | inhibited | – | – |
| CC1(C)SCCN(S(=O)(=O)c2ccc(Oc3ccncc3)cc2)[C@H]1C(=O)NO [prinomastat] | significantly reduced; also recorded: inhibited | – | – | – | – |
| hirudin | – | – | completely suppressed | inhibition | inhibited |

From US20260007597A1, “COMPOSITIONS AND METHODS FOR TREATMENT OF VIRUS-INDUCED AIRWAY FIBROSIS” (priority 2022, published 2026)
